According to patent US20210115104A1, “AMYLIN ANALOGUES” (Zealand Pharma A/S, priority 2015, published 2021):
*1 amine or outer side, *2 acyl side, *3 side chain or, on linkers, in order; H or OH if unused. Where a SMILES comes first, the peptide text is derived from it. Bridges are numbered along the chain shown (N, C = ends). [ ]: non-standard residue; d: D form. The star is where a group is joined. C20 diacid = O=C(O)CCCCCCCCCCCCCCCCCCC(=O)*; γGlu = O=C(O)[C@H](CCC(=O)[*:2])N[*:1]; Hyp = O=C(O)[C@@H]1C[C@@H](O)CN1; NMeI = CC[C@H](C)[C@H](NC)C(=O)O; Sar = CNCC(=O)O

How the values were obtained:
[1] = Assessment of chemical stability (RP-HPLC normalized purity); type: physicochemical; conditions: 7 days, 40° C., Table 1; for Normalized purity after 7 days, 40° C., pH 4: pH 4, 0.2 mg/ml; for Normalized purity after 7 days, 40° C., pH 6: pH 6, 0.2 mg/ml; for Normalized purity after 7 days, 40° C., pH 9: pH 9, 0.2 mg/ml; for Normalized purity after 7 days, 40° C., pH 7.5: pH 7.5, 0.2 mg/ml
How it was run: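 Peptides at 0.2 mg/ml in water adjusted to pH 4, 6, 7.5 or 9, incubated at 40° C for 7 days. Main-peak area-% by RP-HPLC (C8 ammonium formate or C18 TFA gradient, UV 220 nm), normalized to T=0 as 100.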

[2] = biological target: T1, human calcitonin receptor (hCTR2) (Homo sapiens, UniProt P30988); test: hCTR2 cAMP assay (AlphaScreen) in COS7 cells; type: cell-based; conditions: cAMP induction, COS7 cells expressing hCTR2; Table 1; read-out: hCTR2 EC50
T1 construct: expressed in transfected cells
T1 sequence (P30988 25-474): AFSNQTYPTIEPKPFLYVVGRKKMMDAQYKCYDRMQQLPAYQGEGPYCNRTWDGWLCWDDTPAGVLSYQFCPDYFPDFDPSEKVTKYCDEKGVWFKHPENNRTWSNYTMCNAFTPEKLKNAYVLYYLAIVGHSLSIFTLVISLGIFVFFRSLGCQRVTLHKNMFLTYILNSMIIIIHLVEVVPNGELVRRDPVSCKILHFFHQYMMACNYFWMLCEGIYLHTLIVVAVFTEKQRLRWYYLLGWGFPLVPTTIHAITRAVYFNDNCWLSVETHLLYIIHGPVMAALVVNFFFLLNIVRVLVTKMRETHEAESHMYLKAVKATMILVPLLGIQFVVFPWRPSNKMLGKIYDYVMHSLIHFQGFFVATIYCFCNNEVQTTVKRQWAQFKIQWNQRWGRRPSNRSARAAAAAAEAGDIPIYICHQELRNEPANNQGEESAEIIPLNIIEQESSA
How it was run: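 Stable hCTR2 clone in RAMP-naïve COS7 cells stimulated 15 min at 37 °C with increasing peptide concentrations in Tyrode buffer pH 7.4 containing IBMX and 0.1% casein. cAMP in lysates measured by AlphaScreen; EC50 from 4-parameter logistic fit.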

[3] = biological target: T2, human amylin receptor 3 (hAMYR3), hCTR2 co-expressed with hRAMP3 (Homo sapiens, UniProt O60896+P30988); test: hAMYR3 cAMP assay (AlphaScreen) in COS7 cells; type: cell-based; conditions: cAMP induction, COS7 cells expressing hAMYR3; Table 1; read-out: hAMYR3 EC50
T2 construct: expressed in transfected cells
T2 sequence (P30988 25-474): T1 sequence (P30988 25-474)
T2 sequence (O60896 24-148 partner): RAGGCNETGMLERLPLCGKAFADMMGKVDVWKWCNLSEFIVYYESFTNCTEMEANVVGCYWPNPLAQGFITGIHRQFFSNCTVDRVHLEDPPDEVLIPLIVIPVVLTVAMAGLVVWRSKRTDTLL
How it was run: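 Stable COS7 clone co-expressing hCTR2 and hRAMP3 was exposed to increasing peptide concentrations in Tyrode buffer (pH 7.4) with 100 µM IBMX and 0.1% casein for 15 min at 37 °C. Lysate cAMP was measured by AlphaScreen; EC50 came from 4-parameter logistic fitting.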

SMILES | Normalized purity after 7 days, 40° C., pH 4 [1] | Normalized purity after 7 days, 40° C., pH 6 [1] | Normalized purity after 7 days, 40° C., pH 9 [1] | EC50 [2] [pM] | EC50 [3] [pM] | Normalized purity after 7 days, 40° C., pH 7.5 [1]
CC[C@H](C)[C@@H](C(=O)N[C@@H](CC(C)C)C(=O)N[C@@H](CO)C(=O)N[C@@H](CO)C(=O)N[C@H](C(=O)N[C@@H](CCC(=O)O)C(=O)N[C@H](C(=O)NCC(=O)N[C@@H](CO)C(=O)N[C@@H](CC(N)=O)C(=O)N[C@H](C(=O)N1C[C@H](O)C[C@H]1C(N)=O)[C@@H](C)O)C(C)C)[C@@H](C)O)N(C)C(=O)[C@H](C)NC(=O)CN(C)C(=O)[C@H](Cc1ccccc1)NC(=O)[C@H](CO)NC(=O)[C@H](CO)NC(=O)[C@H](CCCNC(=N)N)NC(=O)[C@H](CCC(N)=O)NC(=O)[C@H](CC(C)C)NC(=O)[C@H](Cc1ccccc1)NC(=O)[C@H](Cc1c[nH]cn1)NC(=O)[C@H](C)NC(=O)[C@H](CC(C)C)NC(=O)[C@H](CCCNC(=N)N)NC(=O)[C@H](CCC(=O)O)NC(=O)[C@@H](NC(=O)[C@H](C)NC(=O)[C@@H]1CSSC[C@H](NC(=O)[C@H](CCCNC(=N)N)NC(=O)CC[C@H](NC(=O)CCCCCCCCCCCCCCCCCCC(=O)O)C(=O)O)C(=O)NCC(=O)N[C@@H]([C@@H](C)O)C(=O)N[C@@H](C)C(=O)N[C@@H]([C@@H](C)O)C(=O)N1)[C@@H](C)O [Compound 7, [19CD]-isoGlu-R-C( )-GTAT-C( )-ATERLAHFLQRSSF-Gly(Me)-A-Ile(Me)-LSSTEVGSNT-Hyp-NH2] ({C20 diacid-γGlu}-RCGTATCATERLAHFLQRSSF[Sar]A[NMeI]LSSTEVGSNT[Hyp]-NH2; disulfide 2-7) | A (A = >90%) | A (A = >90%) | A (A = >90%) | 87 | – | A (A = >90%)
CC[C@H](C)[C@@H](C(=O)N[C@@H](CC(C)C)C(=O)N[C@@H](CO)C(=O)N[C@@H](CO)C(=O)N[C@H](C(=O)N[C@@H](CCC(=O)O)C(=O)N[C@H](C(=O)NCC(=O)N[C@@H](CO)C(=O)N[C@@H](CO)C(=O)N[C@H](C(=O)N1C[C@H](O)C[C@H]1C(N)=O)[C@@H](C)O)C(C)C)[C@@H](C)O)N(C)C(=O)[C@H](C)NC(=O)CN(C)C(=O)[C@H](Cc1ccccc1)NC(=O)[C@H](CO)NC(=O)[C@H](CO)NC(=O)[C@H](CCCNC(=N)N)NC(=O)[C@H](CCC(N)=O)NC(=O)[C@H](CC(C)C)NC(=O)[C@H](Cc1ccccc1)NC(=O)[C@H](Cc1c[nH]cn1)NC(=O)[C@H](C)NC(=O)[C@H](CC(C)C)NC(=O)[C@H](CCCNC(=N)N)NC(=O)[C@H](CCC(=O)O)NC(=O)[C@@H](NC(=O)[C@H](C)NC(=O)[C@@H]1CSSC[C@H](NC(=O)[C@H](CCCNC(=N)N)NC(=O)CC[C@H](NC(=O)CCCCCCCCCCCCCCCCCCC(=O)O)C(=O)O)C(=O)NCC(=O)N[C@@H]([C@@H](C)O)C(=O)N[C@@H](C)C(=O)N[C@@H]([C@@H](C)O)C(=O)N1)[C@@H](C)O [Compound 28, [19CD]-isoGlu-R-C( )-GTAT-C( )-ATERLAHFLQRSSF-Gly(Me)-A-Ile(Me)-LSSTEVGSST-Hyp-NH2] ({C20 diacid-γGlu}-RCGTATCATERLAHFLQRSSF[Sar]A[NMeI]LSSTEVGSST[Hyp]-NH2; disulfide 2-7) | A (A = >90%) | B (B = 70-90%) | B (B = 70-90%) | 110 | 130 | B (B = 70-90%)
CC[C@H](C)[C@@H](C(=O)N[C@@H](CC(C)C)C(=O)N[C@@H](CO)C(=O)N[C@@H](CO)C(=O)N[C@H](C(=O)N[C@@H](CCC(=O)O)C(=O)N[C@H](C(=O)NCC(=O)N[C@@H](CO)C(=O)N[C@@H](CO)C(=O)N[C@H](C(=O)N1CCC[C@H]1C(N)=O)[C@@H](C)O)C(C)C)[C@@H](C)O)N(C)C(=O)[C@H](C)NC(=O)CN(C)C(=O)[C@H](Cc1ccccc1)NC(=O)[C@H](CO)NC(=O)[C@H](CO)NC(=O)[C@H](CCCNC(=N)N)NC(=O)[C@H](CCC(N)=O)NC(=O)[C@H](CC(C)C)NC(=O)[C@H](Cc1ccccc1)NC(=O)[C@H](Cc1c[nH]cn1)NC(=O)[C@H](C)NC(=O)[C@H](CC(C)C)NC(=O)[C@H](CCCNC(=N)N)NC(=O)[C@H](CCC(=O)O)NC(=O)[C@@H](NC(=O)[C@H](C)NC(=O)[C@@H]1CSSC[C@H](NC(=O)[C@H](CCCNC(=N)N)NC(=O)CC[C@H](NC(=O)CCCCCCCCCCCCCCCCCCC(=O)O)C(=O)O)C(=O)NCC(=O)N[C@@H]([C@@H](C)O)C(=O)N[C@@H](C)C(=O)N[C@@H]([C@@H](C)O)C(=O)N1)[C@@H](C)O [Compound 34, [19CD]-isoGlu-R-C( )-GTAT-C( )-ATERLAHFLQRSSF-Gly(Me)-A-Ile(Me)-LSSTEVGSSTP-NH2] ({C20 diacid-γGlu}-RCGTATCATERLAHFLQRSSF[Sar]A[NMeI]LSSTEVGSSTP-NH2; disulfide 2-7) | A (A = >90%) | B (B = 70-90%) | B (B = 70-90%) | 90 | 120 | B (B = 70-90%)

Now those with a lower EC50 [2], led by results:

Normalized purity after 7 days, 40° C., pH 4 [1] | Normalized purity after 7 days, 40° C., pH 6 [1] | Normalized purity after 7 days, 40° C., pH 9 [1] | EC50 [2] [pM] | EC50 [3] [pM] | Normalized purity after 7 days, 40° C., pH 7.5 [1] | SMILES
A (A = >90%) | B (B = 70-90%) | B (B = 70-90%) | 77 | 220 | – | CC[C@H](C)[C@@H](C(=O)N[C@@H](CC(C)C)C(=O)N[C@@H](CO)C(=O)N[C@@H](CO)C(=O)N[C@H](C(=O)N[C@@H](CCC(=O)O)C(=O)N[C@H](C(=O)NCC(=O)N[C@@H](CO)C(=O)N[C@@H](CC(N)=O)C(=O)N[C@H](C(=O)N1C[C@H](O)C[C@H]1C(N)=O)[C@@H](C)O)C(C)C)[C@@H](C)O)N(C)C(=O)[C@H](C)NC(=O)CN(C)C(=O)[C@H](Cc1ccccc1)NC(=O)[C@H](CO)NC(=O)[C@H](CO)NC(=O)[C@H](CCCNC(=N)N)NC(=O)[C@H](CC(N)=O)NC(=O)[C@H](CC(C)C)NC(=O)[C@H](Cc1ccccc1)NC(=O)[C@H](Cc1c[nH]cn1)NC(=O)[C@H](C)NC(=O)[C@H](CC(C)C)NC(=O)[C@H](CCCNC(=N)N)NC(=O)[C@H](CCC(=O)O)NC(=O)[C@@H](NC(=O)[C@H](C)NC(=O)[C@@H]1CSSC[C@H](NC(=O)[C@H](CCCNC(=N)N)NC(=O)CC[C@H](NC(=O)CCCCCCCCCCCCCCCCCCC(=O)O)C(=O)O)C(=O)NCC(=O)N[C@@H]([C@@H](C)O)C(=O)N[C@@H](C)C(=O)N[C@@H]([C@@H](C)O)C(=O)N1)[C@@H](C)O [Compound 6, [19CD]-isoGlu-R-C( )-GTAT-C( )-ATERLAHFLNRSSF-Gly(Me)-A-Ile(Me)-LSSTEVGSNT-Hyp-NH2] ({C20 diacid-γGlu}-RCGTATCATERLAHFLNRSSF[Sar]A[NMeI]LSSTEVGSNT[Hyp]-NH2; disulfide 2-7)
A (A = >90%) | B (B = 70-90%) | B (B = 70-90%) | 44 | 79 | B (B = 70-90%) | CC[C@H](C)[C@@H](C(=O)N[C@@H](CC(C)C)C(=O)N[C@@H](CO)C(=O)N[C@@H](CO)C(=O)N[C@H](C(=O)N[C@@H](CCC(=O)O)C(=O)N[C@H](C(=O)NCC(=O)N[C@@H](CO)C(=O)N[C@@H](CC(N)=O)C(=O)N[C@H](C(=O)N1CCC[C@H]1C(N)=O)[C@@H](C)O)C(C)C)[C@@H](C)O)N(C)C(=O)[C@H](C)NC(=O)CN(C)C(=O)[C@H](Cc1ccccc1)NC(=O)[C@H](CO)NC(=O)[C@H](CO)NC(=O)[C@H](CCCNC(=N)N)NC(=O)[C@H](Cc1c[nH]cn1)NC(=O)[C@H](CC(C)C)NC(=O)[C@H](Cc1ccccc1)NC(=O)[C@H](Cc1c[nH]cn1)NC(=O)[C@H](C)NC(=O)[C@H](CC(C)C)NC(=O)[C@H](CCCNC(=N)N)NC(=O)[C@H](CCC(=O)O)NC(=O)[C@@H](NC(=O)[C@H](C)NC(=O)[C@@H]1CSSC[C@H](NC(=O)[C@H](CCCNC(=N)N)NC(=O)CC[C@H](NC(=O)CCCCCCCCCCCCCCCCCCC(=O)O)C(=O)O)C(=O)NCC(=O)N[C@@H]([C@@H](C)O)C(=O)N[C@@H](C)C(=O)N[C@@H]([C@@H](C)O)C(=O)N1)[C@@H](C)O [Compound 15, [19CD]-isoGlu-R-C( )-GTAT-C( )-ATERLAHFLHRSSF-Gly(Me)-A-Ile(Me)-LSSTEVGSNTP-NH2] ({C20 diacid-γGlu}-RCGTATCATERLAHFLHRSSF[Sar]A[NMeI]LSSTEVGSNTP-NH2; disulfide 2-7)
